Results from patent US6231894A, “Treatments based on discovery that nitric oxide synthase is a paraquat diaphorase” (Duke University, priority 1999, dated 2001).

Legend:
[1] = molecular target: T1, Recombinant rat neuronal nitric oxide synthase (NOS1) (Rattus norvegicus, UniProt P29476); experiment: NO formation by NOS1, total nitrite and nitrate (colorimetric); format: biochemical
T1 construct: purchased Oxis, Portland, Oreg
Protocol: Recombinant rat neuronal nitric oxide synthase (NOS1, Oxis, Portland, Oreg.), a constitutive enzyme, was used to assay NADPH oxidation in the presence of increasing concentrations of paraquat. Reactions (0.2 ml) were performed in bis-tris propane buffer (40 mM) containing L-arginine (1 mM), CaCl2 (1.2 mM), EDTA (0.9 mM), NADPH (0.35 mM), dithiothreitol (3 mM), tetrahydrobiopterin (4 μM), catalase (1 μg/ml) and calmodulin (200 U/ml) at pH 7.4. Reactions were initiated by the addition of 1.5 U of NOS1, and the oxidation of NADPH was continuously monitored at 340 nm for 1 minute at 37° C. in a plate reader. The rate of NOS-mediated NADPH oxidation was determined using an extinction coefficient of 6.22 mM^-1 cm^-1 after subtracting the baseline of NADPH oxidation.
The same microtiter plates used above were left at room temperature for 5 hours and then an aliquot was assayed for total nitrite and nitrate. Nitrite and nitrate were assayed using a non-enzymatic colorimetric kit (NB-88, Oxford Biomedical Research, Oxford, Mich.). NADPH oxidation was stopped after 5 hours by addition of 25 μl of zinc sulfate (30% w/v) to precipitate the NOS protein. Nitrate was non-enzymatically converted to nitrite by overnight incubation of 150 μl of reaction mixture from the NADPH oxidation assay with cadmium beads. Nitrite concentration was determined from a standard curve using 100 μl sample or standard. As shown FIG. 1(b), the formation of NO was inhibited by paraquat.

[2] = tested on: rat NOS1; experiment: Anaerobic reduction of paraquat by NOS1 at 600 nm; Hanes plot; format: biochemical
Protocol: Anaerobic reduction of paraquat by NOS1 to paraquat.^+ was followed at 600 nm spectrophotometrically and converted to a concentration using the extinction coefficient E600 =13,700 M^-1 cm^-1. Reactions (1 ml) were performed in the NADPH oxidation buffer described above in the absence of L-arginine, dithiothreitol and tetrahydrobiopterin. Reactions were initiated by the addition of 2 U of NOS1 and followed for 3 minutes at 37° C.

[3] = tested on: RAW-264.7 monocyte macrophage cells; experiment: LDH release from macrophages (cytotoxicity); format: cell-based
Protocol: (§1) The RAW-264.7 monocyte macrophage cells line (TIB-71) was purchased from the American Type Culture Collection (Manassas, Va.). The cells were grown in T-75 flasks containing DMEM (Gibco-BRL, Grand Island, N.Y.) supplemented with 1 mM pyruvate, 4.5 g/L glucose and […] fetal bovine serum Macrophages were plated at 2.0×10^4 cells/well in 24-well plates and experiments were performed when cells were near confluence. Macrophages were immunostimulated with 50 ng/ml lipopolysaccharide (LPS) from E. coli serotype 0111:B4 (Signia, St. Louis, Mo.) and 50 U/ml recombinant mouse interferon gamma (INF-γ, R&D Systems, Minneapolis,Minn.). Macrophages were used between passages 2-8. Cell cultures were kept in a 37° C. incubator with air and 5% carbon dioxide.
(§2) NOS2 was induced in RAW cells using a mixture of interferon-γ and lipopolysaccharide (LPS) referred to as "cytomix." Unstimulated (basal) and activated (cytomix) macrophages were treated with 0.1 mM paraquat or not treated with paraquat and cytotoxicity and NO production were assessed at 24 hours.
Cell injury was assessed by measuring LDH release.
(§3) To further exclude the role of peroxynitrite, macrophages were treated with increasing concentrations of the NO-donor, DETA NONOate in the presence of 0.1 mM paraquat. Macrophage cytotoxicity and NO release were assessed 24 hours after treatments. Cell injury was assessed by measuring LDH release.

[4] = tested on: RAW-264.7 monocyte macrophage cells; experiment: NO production, nitrite plus nitrate, in macrophages; format: cell-based; conditions: 0.1 mM paraquat, 24 hours
Protocol: as §1, §2
NO production, assessed by measuring the accumulation of the NO metabolites nitrite and nitrate 24 hours after cytomix treatment, is shown in FIG. 4(b). […] NOS2 expression was not affected (data not shown).
as §3

[5] = tested on: NOS2; experiment: NOS2 expression in macrophages; format: cell-based; conditions: 0.1 mM paraquat, cytomix; data not shown
Protocol: as §1, §2

[6] = tested on: aconitase; experiment: Aconitase/fumarase activity ratio in macrophage lysates; format: cell-based; conditions: 24 hours, FIG. 5
Protocol: Aconitase activity (a sensitive marker of O2^- and peroxynitrite formation) and fumarase activity were measured as described in Patel, M., et al., Nuron 16, 345-355 (1996). Specifically aconitase activity was determined spectrophotometrically by monitoring the formation of cis-aconitate from isocitrate at 240 nm. Fumarase activity was measured by monitoring the increased absorbence at 240 mn following the formation of fumarate from L-malate. Aconitase activity was expressed as a ratio of aconitase activity to flimarase activity in order to correct for differences in cell numbers.
Aconitase activity was measured in cell lysates 24 hours after cytomix, DETA nonoate and paraquat treatments. Macrophages were grown in 24-well plates and treated with cytomix or 250 μM DETA NONOate. Control, activated (cytomix) and DETA NONOate groups were treated with paraquat (0.1 mM) or not treated with paraquat. The results are shown in FIG. 5 where an asterisk indicates a significant difference from control group, p<0.05.

[7] = tested on: solid tumor; experiment: Working Example VII: solid tumor patient; format: in vivo, human; conditions: IV infusion 4 milligram per kilogram, seven cycles, after 5,6 MEXAA; two weeks
Protocol: A person is given the anti-tumor agent 5,6 dimethylxanthemone-4-acetic acid (5,6 MEXAA) to treat a solid tumor identified by biopsy on the left lower extremity, and lung. […] At this time, the patient is treated with intravenous infusion of paraquat (4 milligram per kilogram) for seven cycles.

[8] = tested on: restenosis; experiment: Working Example VIII: restenosis patient; format: in vivo, human; conditions: 10 mg locally instilled via balloon, repeat angioplasty
Protocol: A person undergoes angioplasty of the left anterior descending coronary artery. Two weeks following procedure, they present with chest pain and the radiographic evidence of restenosis. They undergo repeat angioplasty with infusion of paraquat (dosage of 10 mg), locally instilled under pressure via the balloon.

[9] = Working Example XIII: accident victim with hypotension; format: in vivo, human; conditions: IV 0.4 milligrams per kilogram over 2 hours
Protocol: A accident victim presents with a blood pressure of 80/60 and a hematocrit of 20. They are bleeding profusely from an abdominal would and doctors are having difficulty maintaining their blood pressure with fluid resuscitation. They are begun on an intravenous drip of paraquat of 0.4 milligrams per kilogram over 2 hours.

T1 sequence (P29476 whole entry): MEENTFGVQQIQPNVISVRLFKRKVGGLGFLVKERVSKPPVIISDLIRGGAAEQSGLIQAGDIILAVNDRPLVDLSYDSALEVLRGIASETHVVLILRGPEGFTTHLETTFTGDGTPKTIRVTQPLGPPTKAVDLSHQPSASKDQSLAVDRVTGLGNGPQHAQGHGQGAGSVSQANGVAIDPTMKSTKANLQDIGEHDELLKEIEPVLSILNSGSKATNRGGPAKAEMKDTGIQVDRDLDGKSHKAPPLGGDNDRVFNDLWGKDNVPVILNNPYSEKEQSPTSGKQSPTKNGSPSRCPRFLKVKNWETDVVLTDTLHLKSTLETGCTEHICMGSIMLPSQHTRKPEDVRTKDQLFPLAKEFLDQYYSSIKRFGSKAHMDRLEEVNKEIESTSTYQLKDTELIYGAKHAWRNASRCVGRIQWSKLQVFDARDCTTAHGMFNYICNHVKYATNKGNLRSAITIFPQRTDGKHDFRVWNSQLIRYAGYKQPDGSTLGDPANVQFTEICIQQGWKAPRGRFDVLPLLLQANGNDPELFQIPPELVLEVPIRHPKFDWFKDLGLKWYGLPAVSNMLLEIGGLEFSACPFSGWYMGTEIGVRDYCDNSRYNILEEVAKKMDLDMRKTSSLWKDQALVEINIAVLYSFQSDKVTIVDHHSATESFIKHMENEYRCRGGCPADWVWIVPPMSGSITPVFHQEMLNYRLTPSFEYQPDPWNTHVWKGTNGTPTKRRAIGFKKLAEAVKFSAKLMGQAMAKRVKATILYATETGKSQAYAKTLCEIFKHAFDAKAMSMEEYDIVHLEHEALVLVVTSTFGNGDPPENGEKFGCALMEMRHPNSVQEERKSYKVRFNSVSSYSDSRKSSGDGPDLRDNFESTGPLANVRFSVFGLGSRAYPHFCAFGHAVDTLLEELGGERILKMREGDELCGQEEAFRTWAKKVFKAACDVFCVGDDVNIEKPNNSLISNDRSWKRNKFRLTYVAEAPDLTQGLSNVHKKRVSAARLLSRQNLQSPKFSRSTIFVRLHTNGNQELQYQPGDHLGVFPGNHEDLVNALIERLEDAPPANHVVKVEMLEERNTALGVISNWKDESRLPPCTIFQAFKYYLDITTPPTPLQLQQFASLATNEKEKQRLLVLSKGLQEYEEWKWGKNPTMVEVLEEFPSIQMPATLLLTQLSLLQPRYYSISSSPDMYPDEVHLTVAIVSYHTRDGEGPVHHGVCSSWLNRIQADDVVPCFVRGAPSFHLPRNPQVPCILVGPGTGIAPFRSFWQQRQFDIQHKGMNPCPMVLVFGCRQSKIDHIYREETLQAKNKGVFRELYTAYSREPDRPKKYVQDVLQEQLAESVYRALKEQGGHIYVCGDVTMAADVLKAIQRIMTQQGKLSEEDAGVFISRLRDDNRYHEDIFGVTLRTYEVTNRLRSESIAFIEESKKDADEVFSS

SMILES: C[n+]1ccc(-c2cc[n+](C)cc2)cc1 [paraquat]
- NO formation (accumulation of nitrite and nitrate) ([1]; FIG. 1(b), 5 hours at room temperature): concentration dependent decrease in NO formation
- IC50 ([1]; concentration that inhibited NO formation by 50%, 95% confidence level 47-82 μM, 5 hours, read-out: IC50, inhibition of NO formation): 62 µM
- NOS activity ([1]; conclusion of Background Example 1): inhibits NOS activity
- paraquat reductase activity (Hanes plot) ([2]; FIG. 1(d)): increased paraquat reduction with increasing paraquat concentration
- reduction of paraquat to its cation radical (600 nm) ([2]; anaerobic, without L-arginine, 37° C., 3 minutes, FIG. 1(c)): direct and progressive reduction of paraquat to its cation radical
- cell injury (LDH release), single treatment ([3]; 0.1 mM paraquat or cytomix alone, 24 hours, FIG. 4(a)): very little cell injury
- paraquat-induced cytotoxicity in activated macrophages ([3]; 0.1 mM paraquat plus cytomix, 24 hours, FIG. 4(a)): potentiated in cytokine-activated macrophages
- effect of paraquat on DETA NONOate-induced cell injury ([3]; 0.1 mM paraquat, higher DETA NONOate concentrations, 24 hours, FIG. 4(c)): DETA NONOate-induced cell injury was attenuated by paraquat
- cell killing / amelioration of toxicity, conclusion ([3]; conclusion of Background Example 4): kills cells containing NOS but not cells that do not
- formation of NO metabolites from DETA NONOate ([4]; FIG. 4(d)): does not alter the formation of NO metabolites from DETA NONOate
- percent decrease in nitrite and nitrate compared with percent increase in cell death ([4]; cytomix-activated): percent decrease in nitrite and nitrate was greater than percent increase in cell death
- NO production (nitrite and nitrate) ([4]; cytomix-activated, FIG. 4(b)): significantly attenuated NO production
- NOS2 expression [5]: not affected
- aconitase activity ([6]; paraquat 0.1 mM plus 250 μM DETA NONOate): not seen in the paraquat/DETA NONOate group
- aconitase activity ([6]; paraquat 0.1 mM plus cytomix): a decrease in aconitase activity is seen
- tumor regression [7]: tumor regresses and is not longer detectable
- restenosis or angina [8]: without further episode of restenosis or angina
- patient condition [9]: the patient is stabilized
- blood pressure ([9]; from 80/60): 100/70
